Results taken from PMC7395068, “The evolution of strategies to minimise the risk of human drug-induced liver injury (DILI) in drug discovery and development” (Archives of Toxicology, 2020).
Like-named read-outs stand apart in the source and are kept apart here. Each block holds one compound with its values, some of them ahead of it.

Key:
[1] = Plasma free fraction (fu) and unbound Cmax (Cmax,u); assay type: in vitro ADME, human; conditions: unbound plasma Cmax
[2] = tested on: THLE or HepG2 cells, isolated mitochondria, BSEP; conditions: cited from earlier work
[3] = tested on: HepG2 C3A spheroid, BSEP, Glu/Gal in HepG2 cells, bioactivation; conditions: cited from earlier work; for Bayesian Machine Learning: In vitro Assay, ref Williams 2019
[4] = read-out: Human plasma Cmax; total plasma Cmax.tot, median of 9 literature references; cited from earlier work
[5] = plasma free fraction; cited from earlier work
hLiMTs [6] = assay: Combined HCI (HCS) and cellular ATP 3D assay in hLiMTs; conditions: for DILI prediction hLiMTs (HCS-MEC): Microtissue model structural based (HCI), combined HCS and ATP, MEC < 25 × Cmax.tot cut-off; for hLiMTs <25x Avg Cmax ATP / hLiMTs <100x Avg Cmaxu ATP: ATP endpoint; for hLiMTs <25x Avg Cmax ATP / hLiMTs <25x Avg Cmax HCS / hLiMTs <25x Avg Cmax All: cut-off <25x Avg Cmax; for hLiMTs <100x Avg Cmaxu ATP / hLiMTs <100x Avg Cmaxu HCS / hLiMTs <100x Avg Cmaxu All: cut-off <100x Avg Cmaxu; for hLiMTs <25x Avg Cmax HCS / hLiMTs <100x Avg Cmaxu HCS: HCS endpoints; for hLiMTs <25x Avg Cmax All: all endpoints (ATP and HCS); for hLiMTs Cmax max All / hLiMTs Cmax min All / hLiMTs <10 uM All / hLiMTs <100x Avg Cmaxu All: all endpoints; for hLiMTs Cmax max All: Cmax max used; for hLiMTs Cmax min All: Cmax min used; for hLiMTs <10 uM All: cut-off <10 uM
HepaRG spheroids = assay: Combined HCI (HCS) and cellular ATP 3D assay in HepaRG spheroids; conditions: for HepaRG <25x Avg Cmax ATP / HepaRG <100x Avg Cmaxu ATP: ATP endpoint; for HepaRG <25x Avg Cmax ATP / HepaRG <25x Avg Cmax HCS / HepaRG <25x Avg Cmax All: cut-off <25x Avg Cmax; for HepaRG <100x Avg Cmaxu ATP / HepaRG <100x Avg Cmaxu HCS / HepaRG <100x Avg Cmaxu All: cut-off <100x Avg Cmaxu; for HepaRG <25x Avg Cmax HCS / HepaRG <100x Avg Cmaxu HCS: HCS endpoints; for HepaRG <25x Avg Cmax All: all endpoints (ATP and HCS); for HepaRG Cmax max All / HepaRG Cmax min All / HepaRG <10 uM All / HepaRG <100x Avg Cmaxu All: all endpoints; for HepaRG Cmax max All: Cmax max used; for HepaRG Cmax min All: Cmax min used; for HepaRG <10 uM All: cut-off <10 uM; for AC50 / minimal effective concentration: Homo sapiens; for HepaRG <25x Avg Cmax ATP / HepaRG <100x Avg Cmaxu ATP / HepaRG <25x Avg Cmax HCS / HepaRG <100x Avg Cmaxu HCS / HepaRG <25x Avg Cmax All / HepaRG Cmax max All / HepaRG Cmax min All / HepaRG <10 uM All / HepaRG <100x Avg Cmaxu All / AC50 / minimal effective concentration: HepaRG; for DILI prediction HepaRG spheroids (HCS-MEC): Microtissue model structural based (HCI), combined HCS and ATP, MEC < 25 × Cmax.tot cut-off
[7] = cited from earlier work
PHH = conditions: cited from earlier work
hLiMTs [8] = conditions: cited from earlier work
[9] = cited from earlier work; remark: listed apart in the source
[10] = Modeled in vitro assays (cytotoxicity, mitochondrial dysfunction, BSEP), ref Aleo et al. 2019
[11] = In vitro Assay, ref Proctor 2017

SMILES: N[C@@H](Cc1cc(I)c(Oc2ccc(O)c(I)c2)c(I)c1)C(=O)O [liothyronine]
Human plasma Cmax,u [1]: 0.05 nM
Partition Hybrid HRM Score ([2]; In vitro Assay, ref Aleo 2019): -VE
Ro2 Hybrid HRM Score ([2]; In vitro Assay, ref Aleo 2019): -VE
Partition Hybrid HRM Score ≥4, Aleo (2019) [2, 10]: -VE
Partition Hybrid HRM Score ≥8, Aleo (2019) [2, 10]: -VE
Rule of Two hybrid HRM Score ≥3, Aleo (2019) [2, 10]: -VE
Rule of Two hybrid HRM Score ≥8, Aleo (2019) [2, 10]: -VE
Bayesian Machine Learning [3]: -VE
Cmax [4]: 2 nM
fu [5]: 0.020
DILI prediction hLiMTs (HCS-MEC) (hLiMTs [6]): -VE
hLiMTs <25x Avg Cmax ATP (hLiMTs [6]): -ve
hLiMTs <100x Avg Cmaxu ATP (hLiMTs [6]): -ve
hLiMTs <25x Avg Cmax HCS (hLiMTs [6]): -ve
hLiMTs <100x Avg Cmaxu HCS (hLiMTs [6]): -ve
hLiMTs <25x Avg Cmax All (hLiMTs [6]): -ve
hLiMTs Cmax max All (hLiMTs [6]): -ve
hLiMTs Cmax min All (hLiMTs [6]): -ve
hLiMTs <10 uM All (hLiMTs [6]): -ve
hLiMTs <100x Avg Cmaxu All (hLiMTs [6]): -ve
HepaRG <25x Avg Cmax ATP (HepaRG spheroids): -ve
HepaRG <100x Avg Cmaxu ATP (HepaRG spheroids): -ve
HepaRG <25x Avg Cmax HCS (HepaRG spheroids): -ve
HepaRG <100x Avg Cmaxu HCS (HepaRG spheroids): -ve
HepaRG <25x Avg Cmax All (HepaRG spheroids): -ve
HepaRG Cmax max All (HepaRG spheroids): -ve
HepaRG Cmax min All (HepaRG spheroids): -ve
HepaRG <10 uM All (HepaRG spheroids): +ve (<10 uM)
HepaRG <100x Avg Cmaxu All (HepaRG spheroids): -ve
AC50 (HepaRG spheroids; read-out: ATP endpoint AC50): 30.5 µM
minimal effective concentration (HepaRG spheroids; read-out: ATP endpoint MEC): 11.5 µM
AC50 (HepaRG spheroids; read-out: HCS endpoint AC50): 82.8 µM
minimal effective concentration (HepaRG spheroids; read-out: HCS endpoint MEC): 4.14 µM
DILI prediction HepaRG spheroids (HCS-MEC) (HepaRG spheroids): -VE

Human plasma Cmax,u [1]: 85 nM
hLiMTs <25x Avg Cmax ATP (hLiMTs [6]): -ve
hLiMTs <100x Avg Cmaxu ATP (hLiMTs [6]): -ve
hLiMTs <25x Avg Cmax HCS (hLiMTs [6]): -ve
hLiMTs <100x Avg Cmaxu HCS (hLiMTs [6]): -ve
hLiMTs <25x Avg Cmax All (hLiMTs [6]): -ve
hLiMTs Cmax max All (hLiMTs [6]): -ve
hLiMTs Cmax min All (hLiMTs [6]): -ve
hLiMTs <10 uM All (hLiMTs [6]): -ve
hLiMTs <100x Avg Cmaxu All (hLiMTs [6]): -ve
HepaRG <25x Avg Cmax ATP (HepaRG spheroids): -ve
HepaRG <100x Avg Cmaxu ATP (HepaRG spheroids): -ve
HepaRG <25x Avg Cmax HCS (HepaRG spheroids): -ve
HepaRG <100x Avg Cmaxu HCS (HepaRG spheroids): -ve
HepaRG <25x Avg Cmax All (HepaRG spheroids): -ve
HepaRG Cmax max All (HepaRG spheroids): -ve
HepaRG Cmax min All (HepaRG spheroids): -ve
HepaRG <10 uM All (HepaRG spheroids): -ve
HepaRG <100x Avg Cmaxu All (HepaRG spheroids): -ve
SMILES: CNC1(C)C2CCC(C2)C1(C)C (stereo not drawn) [mecamylamine]
DILI severity category (Chen et al. [2016]) ([7]; LTKB DILIrank category, ref Chen et al. 2016): No
DILI severity category (Chen 2016) ([7]; human DILI classification, LTKB DILIrank, ref Chen et al. 2016): No
DILI severity category ([7]; human DILI severity, ref Chen et al.): No
DILI +VE (5-8), DILI -VE (-4) ([7]; ref Chen 2016): -VE
DILI severity category ([7]; ref Chen 2016): vNo-DILI-Concern
PHH/100xCmax, Proctor (2017) (PHH; 2D PHH, ATP, IC50 < 100 × Cmax.tot, ref Proctor et al. 2017): -VE
PHH/100uM, Proctor (2017) (PHH; 2D PHH, ATP, IC50 threshold 100 µM, ref Proctor et al. 2017): -VE
PHH ATP <100uM (PHH; [11]): -VE
hLiMTs ATP <100uM (hLiMTs [8]; [11]): -VE
hLiMTs/100xCmax, Proctor (2017) (hLiMTs [8]; hLiMTs, ATP, IC50 < 100 × Cmax.tot, ref Proctor et al. 2017): -VE
hLiMTs/100uM, Proctor (2017) (hLiMTs [8]; hLiMTs, ATP, IC50 threshold 100 µM, ref Proctor et al. 2017): -VE
Bayesian Machine Learning DILI prediction, Williams (2019) ([3]; Bayesian modeling, ref Williams et al. 2019): -VE
Bayesian Machine Learning [3]: -VE
Cmax [4]: 142 nM
fu [5]: 0.600
Assigned DILI category ([9]; Chen et al. 2016 or literature alignment, ref Chen et al. 2016): 1
In vivo DILI ([9]; […]): -VE
In vivo DILI ([9]; ref Proctor 2017): -VE
In vivo DILI ([9]; ref Williams 2019): -VE
DILI prediction hLiMTs (HCS-MEC) (hLiMTs [6]): -VE
minimal effective concentration (HepaRG spheroids; read-out: HCS endpoint MEC): 12.2 µM
DILI prediction HepaRG spheroids (HCS-MEC) (HepaRG spheroids): -VE
